Measured values from US20090143279A1 (priority 2007, published 2009).
Like-named read-outs stand apart in the source and are kept apart here.

Legend:
[1] = tested on: cellular dehydrogenase activity
mtOXPHOS transcripts = assay type: cell-based, mouse
cytochrome c = assay type: cell-based, mouse
[2] = tested on: mitochondrial membrane potential; assay type: cell-based, mouse
reactive oxygen species = assay type: cell-based, mouse
OXPHOS gene expression = assay type: cell-based, mouse
nuOXPHOS transcripts = assay type: cell-based, mouse
[3] = composite Z-score vs DMSO wells, Conc 20 μM
[4] = composite Z-score vs mock-treated (DMSO) wells, concentration of each compound in μM
[5] = Conc 20 μM, normalized score vs mock-treated (DMSO) wells
[6] = 20 μM, composite Z-score vs DMSO
[7] = composite Z-score vs mock-treated (DMSO) wells, Conc 20 μM
[8] = normalized composite Z-score vs mock-treated (DMSO) wells, Conc 20 μM
[9] = composite Z-score vs DMSO, Conc 8.66 μM
[10] = composite Z-score vs DMSO, Conc 20 μM
[11] = normalized score (composite Z-score vs DMSO mock-treated wells), compound concentration (μM)
[12] = 8.76 μM, composite Z-score vs DMSO
[13] = 13.86 μM, composite Z-score vs DMSO

Chain of cytochrome c (P62897 whole entry): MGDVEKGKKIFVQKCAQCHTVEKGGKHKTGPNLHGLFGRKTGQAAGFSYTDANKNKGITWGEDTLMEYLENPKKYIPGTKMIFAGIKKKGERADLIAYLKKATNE

C#CC1(O)CC[C@H]2[C@@H]3CCC4=CC(=O)CC[C@@H]4[C@H]3CC[C@@]21CC (mixture of isomers) [norgestrel]
MTT [1, 3]: −0.761 | mitoOX (mtOXPHOS transcripts; [3]): −0.187 | Viability (C2C12 myotubes; [3]): −0.966 | cyt c (cytochrome c; [3]): −0.027 | ΔΨm [2, 3]: −0.965 | ROS (reactive oxygen species; [3]): 0.831 | GE-HTS (OXPHOS gene expression; [3]): −0.225 | nucOX (nuOXPHOS transcripts; [3]): −0.183

NC[C@H]1O[C@H](O[C@H]2[C@H](O)[C@@H](O[C@H]3O[C@H](CO)[C@@H](O)[C@H](N)[C@H]3O)[C@H](N)C[C@@H]2N)[C@H](O)[C@@H](O)[C@@H]1O [kanamycin A]
MTT [1, 4]: −1.149 | mitoOX (mtOXPHOS transcripts; [4]): −0.323 | Viability (C2C12 myotubes; [4]): −1.015 | cyt c (cytochrome c; [4]): −0.131 | ΔΨm [2, 4]: −0.812 | ROS (reactive oxygen species; [4]): 1.383 | GE-HTS (OXPHOS gene expression; [4]): −0.270 | nucOX (nuOXPHOS transcripts; [4]): −0.218

COc1cc(OC)c2c(c1)OC(c1ccccc1)CC2=O (stereo not drawn) [alpinetin methyl ether]
MTT (composite Z-score) [1, 5]: −0.694 | mitoOX (composite Z-score) (mtOXPHOS transcripts; [5]): −0.717 | Viability (composite Z-score) (C2C12 myotubes; [5]): 0.220 | cyt c (composite Z-score) (cytochrome c; [5]): −0.145 | ΔΨm (composite Z-score) [2, 5]: −0.286 | ROS (composite Z-score) (reactive oxygen species; [5]): 0.827 | GE-HTS (composite Z-score) (OXPHOS gene expression; [5]): −0.565 | nucOX (composite Z-score) (nuOXPHOS transcripts; [5]): −0.437

CCCC(C(=O)OCCN(CC)CC)(c1ccccc1)c1ccccc1 [proadifen]
MTT [1]: −1.220 | MTT [1, 6]: −1.808 | mitoOX (mtOXPHOS transcripts): −0.201 | mitoOX (mtOXPHOS transcripts; [6]): −0.595 | Viability (C2C12 myotubes): −0.388 | Viability (C2C12 myotubes; [6]): −1.715 | cyt c (cytochrome c): 0.223 | cyt c (cytochrome c; [6]): −0.077 | ΔΨm [2]: −0.557 | ΔΨm [2, 6]: −0.654 | ROS (reactive oxygen species): 0.616 | ROS (reactive oxygen species; [6]): 0.678 | GE-HTS (OXPHOS gene expression): −0.364 | GE-HTS (OXPHOS gene expression; [6]): −0.377 | nucOX (nuOXPHOS transcripts): −0.414 | nucOX (nuOXPHOS transcripts; [6]): −0.243

Cc1onc(-c2c(Cl)cccc2Cl)c1C(=O)N[C@@H]1C(=O)N2[C@@H]1SC(C)(C)[C@@H]2C(=O)O [dicloxacillin sodium]
MTT [1, 3]: −0.587 | mitoOX (mtOXPHOS transcripts; [3]): 0.870 | Viability (C2C12 myotubes; [3]): −0.214 | cyt c (cytochrome c; [3]): −1.277 | ΔΨm [2, 3]: 0.196 | ROS (reactive oxygen species; [3]): −0.070 | GE-HTS (OXPHOS gene expression; [3]): 0.661 | nucOX (nuOXPHOS transcripts; [3]): 0.533

COc1ccc2c(c1OC)OC[C@@H](c1ccc(OC)c(OC)c1OC)C2 [duartin, dimethyl ether]
MTT [1, 7]: −0.975 | mitoOX (mtOXPHOS transcripts; [7]): −0.571 | Viability (C2C12 myotubes; [7]): 1.330 | cyt c (cytochrome c; [7]): −0.531 | ΔΨm [2, 7]: 0.556 | ROS (reactive oxygen species; [7]): 0.796 | GE-HTS (OXPHOS gene expression; [7]): −1.156 | nucOX (nuOXPHOS transcripts; [7]): −1.362

C=C1C(N)CC2CC1C2(C)C (stereo not drawn) [3-amino-beta-pinene]
MTT [1, 8]: −0.906 | mitoOX (mtOXPHOS transcripts; [8]): −1.138 | Viability (C2C12 myotubes; [8]): −0.108 | cyt c (cytochrome c; [8]): 0.460 | ΔΨm [2, 8]: −0.519 | ROS (reactive oxygen species; [8]): 0.421 | GE-HTS (OXPHOS gene expression; [8]): −1.376 | nucOX (nuOXPHOS transcripts; [8]): −1.341

O=c1[nH]c2ccccc2n1C1CCN(CCCC(c2ccc(F)cc2)c2ccc(F)cc2)CC1 [pimozide]
MTT [1, 9]: −0.375 | MTT [1, 10]: −0.447 | mitoOX (mtOXPHOS transcripts; [9]): −0.648 | mitoOX (mtOXPHOS transcripts; [10]): 0.386 | Viability (C2C12 myotubes; [9]): 0.494 | Viability (C2C12 myotubes; [10]): 0.146 | cyt c (cytochrome c; [9]): −0.531 | cyt c (cytochrome c; [10]): −0.121 | ΔΨm [2, 9]: −0.170 | ΔΨm [2, 10]: −0.381 | ROS (reactive oxygen species; [9]): 2.196 | ROS (reactive oxygen species; [10]): 1.432 | GE-HTS (OXPHOS gene expression; [9]): −0.548 | GE-HTS (OXPHOS gene expression; [10]): 0.722 | nucOX (nuOXPHOS transcripts; [9]): −0.438 | nucOX (nuOXPHOS transcripts; [10]): 0.857

colistin
MTT [1, 4]: −1.283 | mitoOX (mtOXPHOS transcripts; [4]): −0.939 | Viability (C2C12 myotubes; [4]): 0.940 | cyt c (cytochrome c; [4]): 0.409 | ΔΨm [2, 4]: −0.746 | ROS (reactive oxygen species; [4]): 0.501 | GE-HTS (OXPHOS gene expression; [4]): −0.341 | nucOX (nuOXPHOS transcripts; [4]): −0.016

OCC(O)COc1ccc(Cl)cc1 (stereo not drawn) [chlorphensin]
MTT [1, 11]: −0.356 | mitoOX (mtOXPHOS transcripts; [11]): −0.766 | Viability (C2C12 myotubes; [11]): −1.132 | cyt c (cytochrome c; [11]): −0.522 | ΔΨm [2, 11]: −0.419 | ROS (reactive oxygen species; [11]): 0.692 | GE-HTS (OXPHOS gene expression; [11]): −0.696 | nucOX (nuOXPHOS transcripts; [11]): −0.613

COC(=O)C[C@H]1C(C)(C)[C@@H](OC(C)=O)[C@@H]2CC3C4CC(=O)O[C@@H](c5ccoc5)[C@]4(C)CCC3[C@@]1(C)C2=O (stereo partly drawn) [dihydrofissinolide]
MTT [1, 7]: −1.189 | mitoOX (mtOXPHOS transcripts; [7]): 0.041 | Viability (C2C12 myotubes; [7]): 0.139 | cyt c (cytochrome c; [7]): −0.122 | ΔΨm [2, 7]: 0.196 | ROS (reactive oxygen species; [7]): 1.029 | GE-HTS (OXPHOS gene expression; [7]): −0.253 | nucOX (nuOXPHOS transcripts; [7]): −0.350

COC(=O)C[C@H]1C2(C)CC34OC5(C)O[C@@]6([C@H](OC(C)=O)C(OC(C)=O)[C@]7(C)C(/C(=C(/O)C(C)C)C(=O)O[C@H]7c7ccoc7)[C@@]6(O5)[C@H](OC(C)=O)[C@@]3(O)C2OC(=O)C(C)C)[C@]14C (stereo partly drawn) [bussein]
MTT [1, 10]: −0.599 | MTT [1, 7]: −1.406 | mitoOX (mtOXPHOS transcripts; [10]): −0.868 | mitoOX (mtOXPHOS transcripts; [7]): 1.660 | Viability (C2C12 myotubes; [10]): −0.052 | Viability (C2C12 myotubes; [7]): 0.575 | cyt c (cytochrome c; [10]): 0.622 | cyt c (cytochrome c; [7]): −1.496 | ΔΨm [2, 10]: −0.807 | ΔΨm [2, 7]: 0.367 | ROS (reactive oxygen species; [10]): 0.656 | ROS (reactive oxygen species; [7]): −0.449 | GE-HTS (OXPHOS gene expression; [10]): −0.809 | GE-HTS (OXPHOS gene expression; [7]): 1.630 | nucOX (nuOXPHOS transcripts; [10]): −0.683 | nucOX (nuOXPHOS transcripts; [7]): 1.431

Cc1cc(N)c2ccccc2[n+]1CCCCCCCCCC[n+]1c(C)cc(N)c2ccccc21 [dequalinium]
MTT [1, 12]: −5.151 | MTT [1, 6]: −4.446 | mitoOX (mtOXPHOS transcripts; [12]): −2.024 | mitoOX (mtOXPHOS transcripts; [6]): −2.705 | Viability (C2C12 myotubes; [12]): −3.696 | Viability (C2C12 myotubes; [6]): −3.176 | cyt c (cytochrome c; [12]): −4.108 | cyt c (cytochrome c; [6]): −3.241 | ΔΨm [2, 12]: −3.242 | ΔΨm [2, 6]: −2.506 | ROS (reactive oxygen species; [12]): −3.041 | ROS (reactive oxygen species; [6]): −3.055 | GE-HTS (OXPHOS gene expression; [12]): −1.322 | GE-HTS (OXPHOS gene expression; [6]): −1.733 | nucOX (nuOXPHOS transcripts; [12]): −0.852 | nucOX (nuOXPHOS transcripts; [6]): −1.087

CCCCN1CCCCC1C(=O)Nc1c(C)cccc1C (stereo not drawn) [bupivacaine]
MTT [1, 13]: −1.440 | MTT [1, 6]: −0.841 | mitoOX (mtOXPHOS transcripts; [13]): 0.002 | mitoOX (mtOXPHOS transcripts; [6]): 0.009 | Viability (C2C12 myotubes; [13]): −0.663 | Viability (C2C12 myotubes; [6]): −1.202 | cyt c (cytochrome c; [13]): −0.058 | cyt c (cytochrome c; [6]): 0.190 | ΔΨm [2, 13]: −0.938 | ΔΨm [2, 6]: 0.084 | ROS (reactive oxygen species; [13]): 0.545 | ROS (reactive oxygen species; [6]): 0.801 | GE-HTS (OXPHOS gene expression; [13]): −0.227 | GE-HTS (OXPHOS gene expression; [6]): 0.392 | nucOX (nuOXPHOS transcripts; [13]): −0.316 | nucOX (nuOXPHOS transcripts; [6]): 0.548

C[N+]12CCC(CC1)C(OC(=O)C(O)(c1ccccc1)c1ccccc1)C2 (stereo not drawn) [clidinium]
MTT [1]: −2.250 | MTT [1, 6]: −1.393 | mitoOX (mtOXPHOS transcripts): −0.903 | mitoOX (mtOXPHOS transcripts; [6]): −0.602 | Viability (C2C12 myotubes): 0.172 | Viability (C2C12 myotubes; [6]): −0.084 | cyt c (cytochrome c): 0.176 | cyt c (cytochrome c; [6]): −0.062 | ΔΨm [2]: −0.715 | ΔΨm [2, 6]: −0.772 | ROS (reactive oxygen species): 1.870 | ROS (reactive oxygen species; [6]): 1.625 | GE-HTS (OXPHOS gene expression): −0.462 | GE-HTS (OXPHOS gene expression; [6]): −0.556 | nucOX (nuOXPHOS transcripts): −0.202 | nucOX (nuOXPHOS transcripts; [6]): −0.503
